Legend:
[1] = target: T1, CRBN and Helios (IKZF2) (Homo sapiens, UniProt Q96SW2+Q9UKS7); experiment: TR-FRET dimerization assay (CRBN-IKZF2 ternary complex formation); assay type: binding; conditions: n=1
T1 construct: His (N); Strep (N)
Summary of the method: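 Compound-induced IKZF2 recruitment to CRBN was read as the 520/490 nm TR-FRET ratio after 15 min at rt. The mix held biotinylated IKZF2, BODIPY-labeled CRBN bound to DDB1 lacking the BPB propeller, tracer Tb-streptavidin and compound titrations; n=1, from ≥3 technical replicates per well.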

[2] = target: T2, SALL4 ZNF1-2 (Homo sapiens, UniProt Q96SW2+Q9UJQ4); experiment: Cellular degradation assay, eGFP-SALL4 ZnF1-2 fusion with mCherry reporter in Flp-In 293 cells; assay type: cell-based; conditions: 5 h incubation, n=1
T2 construct: IKZF1Δ, IKZF2Δ, GSPT1 and SALL4 ZnF1-2 were subcloned; expressed in transfected cells; host or cells: Flp-In 293
T2 sequence (Q9UJQ4 378-438 limits assumed): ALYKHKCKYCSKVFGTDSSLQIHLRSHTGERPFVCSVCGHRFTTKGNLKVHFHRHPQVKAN
T2 sequence (Q96SW2 whole entry, the tested form may be a part): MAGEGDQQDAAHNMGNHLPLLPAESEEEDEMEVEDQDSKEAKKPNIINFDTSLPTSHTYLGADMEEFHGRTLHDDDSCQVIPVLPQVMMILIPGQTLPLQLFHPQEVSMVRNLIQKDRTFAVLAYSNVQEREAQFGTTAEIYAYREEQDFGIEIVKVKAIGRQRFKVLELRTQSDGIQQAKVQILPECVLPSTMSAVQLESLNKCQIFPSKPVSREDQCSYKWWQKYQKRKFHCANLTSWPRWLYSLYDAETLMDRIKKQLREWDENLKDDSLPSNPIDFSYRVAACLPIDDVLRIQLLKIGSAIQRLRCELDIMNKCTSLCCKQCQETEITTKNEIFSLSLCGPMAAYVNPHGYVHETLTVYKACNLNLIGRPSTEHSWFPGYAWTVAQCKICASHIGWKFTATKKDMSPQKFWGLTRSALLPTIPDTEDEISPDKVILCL
T2 sequence (Q16531 whole entry partner, the tested form may be a part): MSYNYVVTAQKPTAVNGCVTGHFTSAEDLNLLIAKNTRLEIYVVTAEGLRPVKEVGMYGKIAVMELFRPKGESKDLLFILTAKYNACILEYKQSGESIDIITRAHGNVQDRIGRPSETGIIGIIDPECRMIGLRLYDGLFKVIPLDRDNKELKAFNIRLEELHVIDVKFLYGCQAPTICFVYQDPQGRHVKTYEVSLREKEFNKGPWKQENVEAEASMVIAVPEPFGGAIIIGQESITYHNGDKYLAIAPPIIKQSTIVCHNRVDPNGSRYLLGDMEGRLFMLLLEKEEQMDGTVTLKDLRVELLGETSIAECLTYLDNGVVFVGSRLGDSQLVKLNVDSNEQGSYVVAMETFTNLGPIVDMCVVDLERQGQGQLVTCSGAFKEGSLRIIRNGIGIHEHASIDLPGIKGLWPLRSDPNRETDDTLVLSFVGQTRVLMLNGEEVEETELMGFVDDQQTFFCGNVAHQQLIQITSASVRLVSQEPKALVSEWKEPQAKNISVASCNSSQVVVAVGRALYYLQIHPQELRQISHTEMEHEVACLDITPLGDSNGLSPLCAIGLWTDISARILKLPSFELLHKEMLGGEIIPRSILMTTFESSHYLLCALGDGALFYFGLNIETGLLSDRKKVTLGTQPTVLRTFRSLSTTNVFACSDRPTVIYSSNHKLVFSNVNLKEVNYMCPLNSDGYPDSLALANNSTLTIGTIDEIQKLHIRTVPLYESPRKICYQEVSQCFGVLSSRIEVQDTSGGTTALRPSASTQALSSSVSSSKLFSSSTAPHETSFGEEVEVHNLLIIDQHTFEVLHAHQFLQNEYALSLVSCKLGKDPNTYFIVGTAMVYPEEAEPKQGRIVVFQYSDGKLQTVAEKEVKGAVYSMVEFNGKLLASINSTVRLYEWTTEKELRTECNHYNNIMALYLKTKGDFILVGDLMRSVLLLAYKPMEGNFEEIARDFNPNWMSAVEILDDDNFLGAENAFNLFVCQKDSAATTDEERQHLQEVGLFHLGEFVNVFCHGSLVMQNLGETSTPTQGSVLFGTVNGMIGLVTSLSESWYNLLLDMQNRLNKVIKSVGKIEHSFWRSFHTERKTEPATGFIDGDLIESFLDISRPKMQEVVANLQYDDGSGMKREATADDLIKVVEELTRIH
Procedure: IKZF1Δ, IKZF2Δ, GSPT1 and SALL4 ZnF1-2 were subcloned into mammalian pcDNA5/FRT Vector (Ampicillin and Hygromycin B resistant) modified to contain MCS-eGFP-P2A-mCherry. Stable cell lines expressing eGFP-protein fusion and mCherry reporter were generated using Flp-In™ 293 system. Plasmid (0.3 μg) and pOG44 (4.7 μg) DNA were preincubated in 100 μL of Opti-MEM® I (Gibco®, Life Technologies™) media containing 0.05 mg/mL Lipofectamine® 2000 (Invitrogen™) for 20 min and added to Flp-In™ 293 cells containing 1.9 ml of DMEM media (Gibco®, Life Technologies™) per well in a 6-well plate format (Falcon, 353046). Cells were propagated after 48 h and transferred into a 10 cm^2 plate (Corning, 430165) in DMEM media containing 50 μg/mL of Hygromycin B (REF 10687010, Invitrogen™) as a selection marker. Following 2-3 passage cycle, FACS (FACSAria™ II, BD) was used to enrich for cells expressing eGFP and mCherry. Cells stably expressing the IKZF1Δ, IKZF2Δ, GSPT1 or SALL4 Znf1-2 GFP fusions with mCherry reporter were seeded at 30-50% confluency in 384-well plates with 50 μL FluoroBrite™ DMEM media (Thermo Fisher Scientific, A18967) containing 10% FBS per well a day before compound treatment. Compound titrations were dispensed using a D300e Digital Dispenser (HP), normalized to 0.5% DMSO, and incubated with cells for 5 hours. The assay plate was imaged immediately using an Acumen® High Content Imager (TTP Labtech) with 488 nm and 561 nm lasers in […] grid per well format.
The resulting images were analyzed using CellProfiler™. A series of image analysis steps (‘image analysis pipeline’) was constructed. First, the red and green channels were aligned and cropped to target the middle of each well (to avoid analysis of heavily clumped cells at the edges), and a background illumination function was calculated for both red and green channels of each well individually and subtracted to correct for illumination variations across the 384-well plate from various sources of error. An additional step was then applied to the green channel to suppress the analysis of large auto fluorescent artifacts and enhance the analysis of cell specific fluorescence by way of selecting for objects under a given size, 30 A.U., and with a given shape, speckles. mCherry-positive cells were then identified in the red channel filtering for objects between 8-60 pixels in diameter and using intensity to distinguish between clumped objects. The green channel was then segmented into GFP positive and negative areas and objects were labeled as GFP positive if at least 40% of it overlapped with a GFP positive area. The fraction of GFP-positive cells/mCherry-positive cells in each well was then calculated, and the green and red images were rescaled for visualization.

[3] = target: GSPT1 (Homo sapiens, UniProt P15170+Q96SW2); experiment: Cellular degradation assay, eGFP-GSPT1 fusion with mCherry reporter in Flp-In 293 cells; assay type: cell-based; set-up: expressed in transfected cells; host or cells: Flp-In 293; conditions: 5 h incubation, n=1
Sequence of GSPT1 (P15170 whole entry, the tested form may be a part): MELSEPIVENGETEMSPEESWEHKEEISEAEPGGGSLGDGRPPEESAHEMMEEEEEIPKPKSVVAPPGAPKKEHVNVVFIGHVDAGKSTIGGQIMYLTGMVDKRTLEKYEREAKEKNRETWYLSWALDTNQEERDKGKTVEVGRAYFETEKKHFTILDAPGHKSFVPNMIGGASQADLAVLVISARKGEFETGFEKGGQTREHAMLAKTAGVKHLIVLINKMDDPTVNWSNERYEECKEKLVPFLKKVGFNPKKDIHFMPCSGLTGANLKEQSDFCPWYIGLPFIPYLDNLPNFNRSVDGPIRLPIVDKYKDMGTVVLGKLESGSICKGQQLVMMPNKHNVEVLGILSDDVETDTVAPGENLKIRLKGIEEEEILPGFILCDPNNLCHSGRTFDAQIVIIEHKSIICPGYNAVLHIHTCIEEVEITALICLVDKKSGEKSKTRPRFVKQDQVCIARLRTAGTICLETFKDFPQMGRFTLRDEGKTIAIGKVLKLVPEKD
Sequence of GSPT1 (Q96SW2 whole entry, the tested form may be a part): as the sequence (Q96SW2 whole entry, the tested form may be a part) above
Sequence of GSPT1 (Q16531 whole entry partner, the tested form may be a part): as the sequence (Q16531 whole entry partner, the tested form may be a part) above
Summary of the method: (§1)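 DC50,5 h derived by variable-slope nonlinear fit of the per-well ratio of GFP-positive to mCherry-positive cells, imaged after 5 h compound exposure at 0.5% DMSO.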

[4] = target: T3, IKZF1 (Homo sapiens, UniProt Q13422); experiment: Cellular degradation assay, eGFP-IKZF1Δ fusion with mCherry reporter in Flp-In 293 cells; assay type: cell-based; conditions: 5 h incubation, n=1
T3 construct: expressed in transfected cells; host or cells: Flp-In 293
T3 sequence (Q13422 83-213 isoform Q13422-7 limits assumed): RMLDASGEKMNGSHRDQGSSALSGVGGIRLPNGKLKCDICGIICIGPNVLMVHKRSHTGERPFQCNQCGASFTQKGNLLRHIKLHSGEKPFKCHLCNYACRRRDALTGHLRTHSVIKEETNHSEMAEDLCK
T3 sequence (Q96SW2 whole entry partner, the tested form may be a part): as the sequence (Q96SW2 whole entry, the tested form may be a part) above
T3 sequence (Q16531 2-1140 partner limits assumed): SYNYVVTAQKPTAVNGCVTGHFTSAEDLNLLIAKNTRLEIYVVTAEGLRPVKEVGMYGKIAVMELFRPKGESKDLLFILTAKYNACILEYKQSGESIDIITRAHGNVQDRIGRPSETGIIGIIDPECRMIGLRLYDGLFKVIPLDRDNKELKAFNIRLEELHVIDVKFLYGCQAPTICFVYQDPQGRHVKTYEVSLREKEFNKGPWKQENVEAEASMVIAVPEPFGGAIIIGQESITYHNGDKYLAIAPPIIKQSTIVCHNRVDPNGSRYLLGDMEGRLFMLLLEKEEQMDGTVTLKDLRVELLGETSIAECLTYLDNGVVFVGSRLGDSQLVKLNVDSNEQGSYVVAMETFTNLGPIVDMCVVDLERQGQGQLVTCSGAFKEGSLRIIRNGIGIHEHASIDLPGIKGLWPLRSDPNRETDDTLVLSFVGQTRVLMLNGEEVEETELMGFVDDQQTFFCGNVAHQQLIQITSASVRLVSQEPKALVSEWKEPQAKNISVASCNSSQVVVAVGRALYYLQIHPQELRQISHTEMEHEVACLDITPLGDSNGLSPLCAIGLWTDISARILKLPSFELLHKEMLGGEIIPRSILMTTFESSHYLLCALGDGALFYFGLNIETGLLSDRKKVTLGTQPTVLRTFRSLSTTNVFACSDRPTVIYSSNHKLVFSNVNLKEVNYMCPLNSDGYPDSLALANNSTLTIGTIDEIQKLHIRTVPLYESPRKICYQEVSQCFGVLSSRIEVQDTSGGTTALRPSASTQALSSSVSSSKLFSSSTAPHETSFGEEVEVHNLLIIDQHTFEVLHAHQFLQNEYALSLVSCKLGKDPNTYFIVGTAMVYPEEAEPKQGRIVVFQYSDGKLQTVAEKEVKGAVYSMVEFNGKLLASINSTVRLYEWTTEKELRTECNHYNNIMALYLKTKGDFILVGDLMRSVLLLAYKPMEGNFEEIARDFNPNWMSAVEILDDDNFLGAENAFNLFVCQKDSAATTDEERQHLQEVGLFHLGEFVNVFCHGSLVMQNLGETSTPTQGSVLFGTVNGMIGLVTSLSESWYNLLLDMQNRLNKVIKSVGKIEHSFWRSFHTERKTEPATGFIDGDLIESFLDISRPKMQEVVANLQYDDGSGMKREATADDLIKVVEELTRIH
Summary of the method: as §1

[5] = test system: IKZF2; experiment: Cellular degradation assay, eGFP-IKZF2Δ fusion with mCherry reporter in Flp-In 293 cells; assay type: cell-based; conditions: 5 h incubation, n=1
Summary of the method: as §1

[6] = compound concentration 6.6667E−05
[7] = compound concentration 6.6667E−06
[8] = compound concentration 6.6667E−07 (667 nM)
[9] = compound concentration 2.00E−05
[10] = compound concentration 2.00E−06
[11] = compound concentration 2.00E−07

T1 sequence (Q96SW2 whole entry): as the sequence (Q96SW2 whole entry, the tested form may be a part) above
T1 sequence (Q9UKS7 whole entry): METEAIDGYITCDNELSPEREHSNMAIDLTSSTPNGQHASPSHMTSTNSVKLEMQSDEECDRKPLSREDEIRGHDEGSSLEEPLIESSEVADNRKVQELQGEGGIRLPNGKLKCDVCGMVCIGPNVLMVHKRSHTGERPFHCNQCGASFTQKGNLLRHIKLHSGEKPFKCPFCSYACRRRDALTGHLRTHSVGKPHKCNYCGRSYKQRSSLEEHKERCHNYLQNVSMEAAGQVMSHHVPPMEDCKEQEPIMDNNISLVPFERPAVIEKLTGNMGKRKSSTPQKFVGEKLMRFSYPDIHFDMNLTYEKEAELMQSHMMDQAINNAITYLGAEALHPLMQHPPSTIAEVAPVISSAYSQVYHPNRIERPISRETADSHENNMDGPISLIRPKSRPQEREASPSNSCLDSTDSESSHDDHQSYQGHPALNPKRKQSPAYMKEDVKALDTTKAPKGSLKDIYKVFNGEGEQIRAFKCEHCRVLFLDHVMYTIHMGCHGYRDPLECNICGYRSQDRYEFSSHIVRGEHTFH

| Compound | TR-FRET-IKZF2 (Normalized to CC-885) [1, 6] | TR-FRET-IKZF2 (Normalized to CC-885) [1, 7] | TR-FRET-IKZF2 (Normalized to CC-885) [1, 8] | SALL4 ZNF1-2 GFP/RFP Relative Abundance [2, 9] | SALL4 ZNF1-2 GFP/RFP Relative Abundance [2, 10] | SALL4 ZNF1-2 GFP/RFP Relative Abundance [2, 11] | GSPT1 GFP/RFP Relative Abundance [3, 9] | GSPT1 GFP/RFP Relative Abundance [3, 10] | GSPT1 GFP/RFP Relative Abundance [3, 11] | IKZF1 GFP/RFP Relative Abundance [4, 9] | IKZF1 GFP/RFP Relative Abundance [4, 10] | IKZF1 GFP/RFP Relative Abundance [4, 11] | IKZF2 GFP/RFP Relative Abundance [5, 9] | IKZF2 GFP/RFP Relative Abundance [5, 10] | IKZF2 GFP/RFP Relative Abundance [5, 11] |
| --- | --- | --- | --- | --- | --- | --- | --- | --- | --- | --- | --- | --- | --- | --- | --- |
| CN(C1=CC(=O)N(C2CCC(=O)NC2=O)C1=O)c1ccccc1 (stereo not drawn) [Compound 28, 3-(3-(methyl(phenyl)amino)-2,5-dioxo-2,5-dihydro-1H-pyrrol-1-yl)piperidine-2,6-dione] | 0.072 | 0.050 | 0.053 | 0.969 | 0.936 | 0.946 | 1.001 | 0.917 | 0.805 | 0.978 | 0.996 | 1.029 | 1.006 | 1.011 | 1.064 |
| O=C1CCC(N2C(=O)C=C(Nc3ccc4cn[nH]c4c3)C2=O)C(=O)N1 (stereo not drawn) [Compound 32, 3-(3-((1H-indazol-6-yl)amino)-2,5-dioxo-2,5-dihydro-1H-pyrrol-1-yl)piperidine-2,6-dione] | 0.274 | 0.213 | 0.210 | 1.008 | 0.889 | 0.901 | 0.646 | 0.855 | 0.970 | 0.748 | 0.795 | 0.832 | 1.008 | 0.941 | 0.958 |
| O=C1CCC(N2C(=O)C=C(Nc3nccs3)C2=O)C(=O)N1 (stereo not drawn) [Compound 19, 3-(2,5-dioxo-3-(thiazol-2-ylamino)-2,5-dihydro-1H-pyrrol-1-yl)piperidine-2,6-dione] | 0.217 | 0.041 | 0.057 | 1.010 | 1.012 | 0.597 | 1.023 | 0.946 | 0.953 | 0.216 | 0.818 | 0.110 | 0.653 | 0.980 | 0.991 |
| O=C(O)CCCNC1=CC(=O)N(C2CCC(=O)NC2=O)C1=O (stereo not drawn) [Compound 21, 4-((1-(2,6-dioxopiperidin-3-yl)-2,5-dioxo-2,5-dihydro-1H-pyrrol-3-yl)amino)butanoic acid] | 0.047 | 0.019 | 0.012 | 0.937 | 0.921 | 0.957 | 0.693 | 0.938 | 0.909 | 0.842 | 0.975 | 0.998 | 0.996 | 0.951 | 0.946 |
| Cc1ccc(NC(=O)Nc2cccc(NC3=CC(=O)N(C4CCC(=O)NC4=O)C3=O)c2)cc1Cl (stereo not drawn) [Compound 43, 1-(3-chloro-4-methylphenyl)-3-(3-((1-(2,6-dioxopiperidin-3-yl)-2,5-dioxo-2,5-dihydro-1H-pyrrol-3-yl)amino)phenyl)urea] | 0.443 | 0.353 | 0.278 | 1.072 | 0.897 | 0.888 | 0.083 | 0.072 | 0.087 | 0.996 | 0.240 | 0.301 | 1.054 | 1.007 | 0.980 |
| CCOC(=O)CNC1=CC(=O)N(C2CCC(=O)NC2=O)C1=O (stereo not drawn) [Compound 16, Ethyl (1-(2,6-dioxopiperidin-3-yl)-2,5-dioxo-2,5-dihydro-1H-pyrrol-3-yl)glycinate] | 0.032 | 0.028 | 0.018 | 1.001 | 1.007 | 1.013 | 0.978 | 0.876 | 1.006 | 1.070 | 1.011 | 1.053 | 0.987 | 1.015 | 1.006 |
| Cc1ccc(NC2=CC(=O)N(C3CCC(=O)NC3=O)C2=O)cc1C (stereo not drawn) [Compound 24, 3-(3-((3,4-dimethylphenyl)amino)-2,5-dioxo-2,5-dihydro-1H-pyrrol-1-yl)piperidine-2,6-dione] | 0.391 | 0.344 | 0.282 | 0.937 | 0.941 | 0.942 | 1.153 | 1.221 | 1.218 | 0.236 | 0.342 | 0.369 | 0.959 | 0.954 | 1.038 |
| Cc1cc(NC2=CC(=O)N(C3CCC(=O)NC3=O)C2=O)ccc1Cl (stereo not drawn) [Compound 4, 3-(3-((4-chloro-3-methylphenyl)amino)-2,5-dioxo-2,5-dihydro-1H-pyrrol-1-yl)piperidine-2,6-dione] | 0.485 | 0.411 | 0.270 | 0.862 | 0.850 | 0.903 | 0.922 | 0.904 | 0.750 | 0.314 | 0.433 | 0.550 | 0.925 | 1.028 | 1.002 |
